Values quoted from earlier work in patent publication US20230310464A1, “USE OF C[…] THE TREATMENT OF SEIZURES ASSOCIATED WITH RARE […] SYNDROMES RELATED TO BRAIN INJURY” (GW Research Limited, priority 2020, published 2023).

Experiments:
[1] = test system: HI injury in an animal model of NHIE; details: CBD combined with therapeutic hypothermia, GB 2504263; cited from earlier work
[2] = test system: new-born piglets with HIE; details: Alvarez et al. (2008); cited from earlier work

In the case of `C=C(C)[C@@H]1CCC(C)=C[C@H]1c1c(O)cc(CCCCC)cc1O` [CBD, cannabidiol], the “neuroprotection following HI injury (in words)” value [1] is listed as “synergistic in neuroprotection”, the “effect on seizures in piglets (in words)” value [2] is listed as “A reduction in seizures was reported” and the “proportion of CBD-treated piglets that still maintained significant seizures” value [2] is listed as “half”.
